Results published in ChEMBL document CHEMBL5260828, “Amphiphilic glycoconjugates as potential anti-cancer chemotherapeutics” (Eur J Med Chem, 2018).
In brackets after ≈: the same amount, converted by molar mass.

What was measured:
NUGC-3 = test: Cytotoxicity against human NUGC-3 cells assessed as cell growth inhibition by measuring lethal dose incubated for 30 mins by MTT assay; assay type: functional; settings: NUGC-3, 0.5 h, read-out: LD50 (the source's name)
HeLa S3 = test: Cytotoxicity against human HeLa S3 cells; assay type: functional, cell-based; settings: Homo sapiens, HeLa S3; read-out: IC50
P388 = test: Cytotoxicity against mouse P388 cells; assay type: functional, cell-based; settings: Mus musculus, P388; read-out: IC50
NCI-H69 = test: Cytotoxicity against human NCI-H69 cells; assay type: functional, cell-based; settings: Homo sapiens, NCI-H69; read-out: IC50
B16 = test: Cytotoxicity against mouse B16 cells; assay type: functional, cell-based; settings: Mus musculus, B16; read-out: IC50
P388/ADM = test: Cytotoxicity against mouse P388/ADM cells; assay type: functional, cell-based; settings: Mus musculus, P388/ADM; read-out: IC50
PK9 = test: Cytotoxicity against human PK9 cells assessed as inhibition of cell growth incubated for 72 hrs by CellTiter 96 aqueous one solution assay; assay type: functional, cell-based; settings: PK9, 72 h
MIA PaCa-2 [1] = test: Cytotoxicity against human MIA PaCa-2 cells assessed as inhibition of cell growth incubated for 72 hrs by CellTiter 96 aqueous one solution assay; assay type: functional, cell-based; settings: MIA PaCa-2, 72 h
HL-60 = test: Cytotoxicity against human HL-60 cells assessed as inhibition of cell proliferation incubated for 72 hrs by MTT assay; assay type: functional, cell-based; settings: HL-60, 72 h
HeLa = test: Cytotoxicity against human HeLa cells assessed as inhibition of cell proliferation incubated for 72 hrs by MTT assay; assay type: functional, cell-based
HCT-116 [2] = test: Cytotoxicity against human HCT-116 cells assessed as cell growth inhibition incubated for 72 hrs by celltiter 96 aqueous cell proliferation assay; assay type: functional, cell-based; settings: HCT-116, 72 h
[3] = biological target: RAC-alpha serine/threonine-protein kinase (Homo sapiens, UniProt P31749); test: Inhibition of AKT1 (unknown origin) in presence of ATP by ELISA
Sequence of RAC-alpha serine/threonine-protein kinase (P31749 whole entry): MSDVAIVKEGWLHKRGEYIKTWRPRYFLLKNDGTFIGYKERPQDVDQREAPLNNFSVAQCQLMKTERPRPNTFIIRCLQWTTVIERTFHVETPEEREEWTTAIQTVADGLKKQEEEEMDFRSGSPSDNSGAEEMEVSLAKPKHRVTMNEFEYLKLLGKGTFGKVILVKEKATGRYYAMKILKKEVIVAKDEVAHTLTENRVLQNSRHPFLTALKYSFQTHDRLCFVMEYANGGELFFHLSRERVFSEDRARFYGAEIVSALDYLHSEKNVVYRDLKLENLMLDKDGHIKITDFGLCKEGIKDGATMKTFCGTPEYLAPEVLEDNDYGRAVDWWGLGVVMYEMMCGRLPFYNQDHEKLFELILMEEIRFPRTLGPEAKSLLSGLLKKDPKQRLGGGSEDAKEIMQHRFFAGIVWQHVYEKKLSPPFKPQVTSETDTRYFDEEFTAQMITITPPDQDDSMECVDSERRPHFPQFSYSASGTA

MDA-MB-231 = test: Cytotoxicity against human MDA-MB-231 cells assessed as reduction in cell viability incubated for 48 hrs by MTS assay; assay type: functional, cell-based
JIMT-1 = test: Cytotoxicity against human JIMT-1 cells assessed as reduction in cell viability incubated for 48 hrs by MTS assay; assay type: functional, cell-based
DU-145 = test: Cytotoxicity against human DU-145 cells assessed as reduction in cell viability incubated for 48 hrs by MTS assay; assay type: functional, cell-based
BT-474 = test: Cytotoxicity against human BT-474 cells assessed as reduction in cell viability incubated for 48 hrs by MTS assay; assay type: functional, cell-based
MIA PaCa-2 [4] = test: Cytotoxicity against human MIA PaCa-2 cells assessed as reduction in cell viability incubated for 48 hrs by MTS assay; assay type: functional, cell-based
PC-3 = test: Cytotoxicity against human PC-3 cells assessed as reduction in cell viability incubated for 48 hrs by MTS assay; assay type: functional, cell-based
SF-268 = test: Antiproliferative activity against human SF-268 cells assessed as inhibition of cell growth incubated for 48 hrs by MTT assay; assay type: functional, cell-based
MCF7 = test: Antiproliferative activity against human MCF7 cells assessed as inhibition of cell growth incubated for 48 hrs by MTT assay; assay type: functional, cell-based
AGS = test: Antiproliferative activity against human AGS cells assessed as inhibition of cell growth incubated for 48 hrs by MTT assay; assay type: functional, cell-based
NCI-H460 = test: Antiproliferative activity against human NCI-H460 cells assessed as inhibition of cell growth incubated for 48 hrs by MTT assay; assay type: functional, cell-based
HCT-116 [5] = test: Antiproliferative activity against human HCT-116 cells assessed as inhibition of cell growth incubated for 48 hrs by MTT assay; assay type: functional, cell-based

With CCCCCCCCCCCCCCCCCC(=O)OCC(O)CO[C@@H]1O[C@H](CS(=O)(=O)O)[C@@H](O)[C@H](O)[C@H]1O (stereo partly drawn) as the molecule, how does the CC50 (NUGC-3) read?
Its CC50 is 135 µM.

Which CC50 (NUGC-3) does the source give for CCCCCCCCCCCCCCCCCC(=O)OCC(O)CO[C@H]1O[C@H](CS(=O)(=O)O)[C@@H](O)[C@H](O)[C@H]1O (stereo partly drawn) here?
The CC50 was 150 µM.

With C/C=C(\C)[C@H](O[C@@H]1O[C@H](CO)[C@@H](O)[C@H](O)[C@H]1O)[C@H](C)/C=C(C)/C=C/C/C(C)=C/Cc1nc(OC)c(OC)c(O)c1C as the molecule, how does the IC50 (HeLa S3) read?
The IC50 was 0.11 µg/mL (≈ 0.19 µM).

And the IC50 (P388)?
Its IC50 is 0.36 µg/mL (≈ 0.623 µM).

What about the IC50 (NCI-H69) of the same molecule?
Its IC50 is 0.019 µg/mL (≈ 0.0329 µM).

And the IC50 (B16)?
Its IC50 is 0.0074 µg/mL (≈ 0.0128 µM).

And the IC50 (P388/ADM)?
Its IC50 is 0.25 µg/mL (≈ 0.433 µM).

What does the source list for CCCCCCCCCCCCc1cn(CC[C@H]2NC[C@@H](O)[C@H]2O)nn1?
IC50 (PK9): 19 µM; IC50 (MIA PaCa-2 [1]): 19 µM

What does the source list for CCCCCCCCCCCCc1cn(C[C@@H]2N[C@@H](C)[C@@H](O)[C@H]2O)nn1?
IC50 (PK9): 19 µM; IC50 (MIA PaCa-2 [1]): 19 µM

C/C=C/C/C(C)=C\[C@H]1C/C=C/C=C/C[C@H](C)/C=C(\C)[C@@H](OC)C/C=C/[C@@H](O)CC(=O)O1 was tested. Which IC50 (HL-60) did it give?
Its IC50 is 0.03 µM.

What about the IC50 (HeLa) of the same molecule?
The IC50 was 0.049 µM.

What does the source list for COc1nc(C/C=C(\C)C/C=C/C(C)=C/[C@@H](C)[C@@H](O[C@@H]2O[C@H](CO)[C@@H](O)[C@H](O)[C@H]2O)/C(C)=C/CO)c(C)c(O)c1OC?
IC50 (HeLa S3): 0.76 µg/mL (≈ 1.28 µM); IC50 (P388): 1.6 µg/mL (≈ 2.69 µM); IC50 (NCI-H69): 0.066 µg/mL (≈ 0.111 µM); IC50 (B16): 0.21 µg/mL (≈ 0.354 µM); IC50 (P388/ADM): 0.78 µg/mL (≈ 1.31 µM)

How did the IC50 (PK9) turn out when CCCCCCCCCCCCc1cn(C[C@H]2NC[C@H](O)[C@@H]2O)nn1 was run?
The IC50 was 19 µM.

And the IC50 (MIA PaCa-2 [1])?
The IC50 was 19 µM.

With CCCCCCCCCCCCCCCCCC(=O)OC[C@H](COC1O[C@H](CS(=O)(=O)[O-])[C@@H](O)[C@H](O)[C@H]1O)OCC(=O)CCCCCCCCCCCCCCC.[Na+] (stereo partly drawn) as the molecule, how does the CC50 (NUGC-3) read?
Its CC50 is 80 µg/mL.

Which IC50 (HCT-116 [2]) does the source give for CO[C@@H]1[C@H](O[C@H]2C[C@]3(O)O[C@H]([C@@H]2C)[C@H](C)[C@H](OC)/C=C(\C)C[C@H](/C=C/C#C[C@H]2C[C@@H]2Cl)OC(=O)[C@H]3C)O[C@@H](C)[C@H]2NC(=O)O[C@]21C here?
Its IC50 is 30 µM.

Which IC50 [3] does the source give for CCCCCCCCCCCCCCCCCC(=O)OCC(COC(=O)CCCCCCCCCCCCCCCCC)O[C@@H]1O[C@H](C(=O)O)[C@@H](O)[C@H](O)[C@H]1O here?
The IC50 was greater than 100 µM.

Which IC50 (MDA-MB-231; MDA-MB-231, 48 h) does the source give for CCCCCCCCCCCCCCCCOC[C@H](CO[C@H]1O[C@H](CNC(=O)CCCc2ccc(N(CCCl)CCCl)cc2)[C@@H](O)[C@H](O)[C@H]1N)OC here?
Its IC50 is 6 µM.

What about the IC50 (JIMT-1; JIMT-1, 48 h) of the same molecule?
The IC50 was 6 µM.

And the IC50 (DU-145; DU-145, 48 h)?
The IC50 was 6 µM.

And the IC50 (BT-474; BT-474, 48 h)?
The IC50 was 6 µM.

And the IC50 (MIA PaCa-2 [4]; MIA PaCa-2, 48 h)?
The IC50 was 6 µM.

What about the IC50 (PC-3; PC-3, 48 h) of the same molecule?
The IC50 was 6 µM.

How did the IC50 (SF-268) turn out when CC/C=C\C/C=C\C/C=C\CCCCCCCC(=O)OCC(CO[C@@H]1O[C@H](CO)[C@H](O)[C@H](O)[C@H]1O)OC(=O)CCCCCCCCCCCCCCCCC (stereo partly drawn) was run?
Its IC50 is 0.039 µg/mL (≈ 0.0499 µM).

And the IC50 (MCF7)?
The IC50 was 0.039 µg/mL (≈ 0.0499 µM).

And the IC50 (AGS)?
The IC50 was 0.039 µg/mL (≈ 0.0499 µM).

What about the IC50 (NCI-H460) of the same molecule?
Its IC50 is 0.039 µg/mL (≈ 0.0499 µM).

What about the IC50 (HCT-116 [5]) of the same molecule?
The IC50 was 0.039 µg/mL (≈ 0.0499 µM).

With CCCCCCCCCCCCCCCCOC[C@H](CO[C@@H]1O[C@H](CN)[C@@H](O)[C@H](O)[C@H]1N)OC as the molecule, how does the CC50 (MDA-MB-231; MDA-MB-231, time 48 hrs) read?
The CC50 was 3 µM.

And the CC50 (JIMT-1; JIMT-1, time 48 hrs)?
Its CC50 is 3.5 µM.

And the CC50 (DU-145; DU-145, time 48 hrs)?
Its CC50 is 5.2 µM.

What about the CC50 (BT-474; BT-474, time 48 hrs) of the same molecule?
Its CC50 is 7.5 µM.

And the CC50 (MIA PaCa-2 [4]; MIA PaCa-2, time 48 hrs)?
Its CC50 is 3.5 µM.

And the CC50 (PC-3; PC-3, time 48 hrs)?
Its CC50 is 3.5 µM.

How did the IC50 (HCT-116 [2]) turn out when CO[C@@H]1/C=C(\C)C[C@H](/C=C/C=C/C#C[C@@H]2C[C@H]2Cl)OC(=O)C[C@]2(O)C[C@H](O[C@@H]3O[C@@H](C)[C@H]4NC(=O)O[C@@]4(C)[C@H]3OC)[C@H](C)[C@@H](O2)[C@@H]1C was run?
The IC50 was 61.9 µM.

Which IC50 (HL-60) does the source give for C/C=C/C/C(C)=C\[C@H]1C/C=C/C=C/C[C@H](C)/C=C(\C)[C@@H](OC)CCC[C@@H](O)CC(=O)O1 here?
Its IC50 is 0.024 µM.

And the IC50 (HeLa)?
The IC50 was 0.046 µM.
